Assay results reported in PMC8165693, “Sensing Enzyme Activation Heat Capacity at the Single-Molecule Level Using Gold-Nanorod-Based Optical Whispering Gallery Modes” (ACS Applied Nano Materials, 2021).

Columns and labels:
[1] = molecular target: T1, maltose-inducible α-glucosidase (MalL) (Bacillus subtilis, UniProt O06994, S135C); experiment: ensemble steady-state kinetics, colorimetric assay in solution; format: biochemical; conditions: free enzyme in solution; temperature of this constant not given
T1 construct: full-length, recombinant, purified as in earlier work

[2] = molecular target: T2, maltose-inducible α-glucosidase (MalL) (Bacillus subtilis, UniProt O06994); experiment: as above; format: biochemical; conditions: free enzyme in solution; temperature of this constant not given
T2 construct: full-length, recombinant, purified as in earlier work
Excerpt: ensemble steady-state kinetics, colorimetric assay in solution on maltose-inducible α-glucosidase (MalL) | both the KM and ΔCP^‡ values are similar between WT MalL and S135C MalL

T2 sequence (O06994 whole entry): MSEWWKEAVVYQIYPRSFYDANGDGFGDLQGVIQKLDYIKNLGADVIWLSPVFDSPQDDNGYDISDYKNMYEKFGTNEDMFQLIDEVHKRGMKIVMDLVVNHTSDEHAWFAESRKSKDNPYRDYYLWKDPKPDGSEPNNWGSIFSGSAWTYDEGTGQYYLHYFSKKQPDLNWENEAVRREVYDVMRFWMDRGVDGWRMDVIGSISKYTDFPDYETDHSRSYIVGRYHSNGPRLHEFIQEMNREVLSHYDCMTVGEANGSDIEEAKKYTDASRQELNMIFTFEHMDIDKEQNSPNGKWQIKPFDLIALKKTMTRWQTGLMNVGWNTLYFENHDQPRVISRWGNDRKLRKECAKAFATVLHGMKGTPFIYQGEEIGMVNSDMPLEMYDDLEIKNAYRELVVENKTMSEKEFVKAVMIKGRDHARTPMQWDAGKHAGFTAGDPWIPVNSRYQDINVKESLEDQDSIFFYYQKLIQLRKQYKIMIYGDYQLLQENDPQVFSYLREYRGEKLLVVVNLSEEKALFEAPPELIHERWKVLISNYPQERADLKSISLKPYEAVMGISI
T1 sequence (O06994 whole entry S135C): as the sequence (O06994 whole entry) above, with S135C counted along it

Q: Which results are given for 4-nitrophenyl-β-D-glucopyranoside?
A: Km [1]: 141 ± 39.6 µM; Km [2]: 108 ± 34.2 µM
